Experimental data taken from patent US7671084B2 (Wyeth, priority 2004, dated 2010).
Where a name gives a salt, the structure may show the parent alone. Read-outs that look alike come from different tables or passages of the source.

Assays:
[1] = molecular target: T1, human ERβ (Homo sapiens, UniProt Q92731); experiment: Competition with [3H]-17β-estradiol for binding to ERβ; conditions: ligand binding domain of human ERβ in E. coli crude lysate, 2 nM [3H]-17β-estradiol, 5-15 hours at room temperature
T1 construct: made in house; host or cells: E. coli (crude lysate)
T1 sequence (Q92731 264-498 limits assumed): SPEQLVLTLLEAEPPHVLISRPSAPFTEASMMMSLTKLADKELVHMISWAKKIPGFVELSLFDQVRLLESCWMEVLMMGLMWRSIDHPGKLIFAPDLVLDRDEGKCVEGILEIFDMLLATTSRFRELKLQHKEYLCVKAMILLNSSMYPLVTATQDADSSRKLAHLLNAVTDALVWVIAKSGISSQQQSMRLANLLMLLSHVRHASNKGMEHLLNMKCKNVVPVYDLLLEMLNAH
Procedure: Representative examples of the invention were evaluated for their ability to compete with 17β-estradiol for both ERα and ERβ. This test procedure provides the methodology for one to determine whether a particular compound binds to the estrogen receptor (and is therefore “estrogenic”) and whether there is selectivity for ERα or ERβ. […] 17β-estradiol is included as a standard reference for comparison. The procedure used is briefly described below. A crude lysate of E. coli expressing the estrogen receptor ligand binding domains (D, E, & F) of human ERα or ERβ was prepared. Both receptors and compounds were diluted in 1× Dulbecco's PBS (DPBS) supplemented with 1 mM EDTA. Using a high binding masked microtiter plate, 100 uL of receptor (1 uG/well) was combined with 2 nm [^3H]-17β-estradiol and various concentrations of compound. After between 5 and 15 hours at room temperature, the plates were washed with DPBS/1 mM EDTA and bound radioactivity determined by liquid scintillation counting. The IC50 is defined as the concentration of compound that decreases total 17β-estradiol binding by 50%.

[2] = molecular target: T2, human ERα (Homo sapiens, UniProt P03372); experiment: Competition with [3H]-17β-estradiol for binding to ERα; conditions: ligand binding domain of human ERα in E. coli crude lysate, 2 nM [3H]-17β-estradiol, 5-15 hours at room temperature
T2 construct: made in house; host or cells: E. coli (crude lysate)
T2 sequence (P03372 311-547 limits assumed): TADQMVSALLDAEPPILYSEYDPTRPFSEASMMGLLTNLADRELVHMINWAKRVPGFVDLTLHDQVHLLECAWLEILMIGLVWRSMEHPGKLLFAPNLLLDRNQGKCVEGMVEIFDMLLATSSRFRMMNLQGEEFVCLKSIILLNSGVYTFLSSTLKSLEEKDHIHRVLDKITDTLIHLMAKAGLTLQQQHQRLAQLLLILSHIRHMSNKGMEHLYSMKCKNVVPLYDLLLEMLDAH
Procedure: Representative examples of the invention were evaluated for their ability to compete with 17β-estradiol for both ERα and ERβ. This test procedure provides the methodology for one to determine whether a particular compound binds to the estrogen receptor (and is therefore “estrogenic”) and whether there is selectivity for ERα or ERβ. The values are shown in the Table infra and are reported as IC50s. 17β-estradiol is included as a standard reference for comparison. The procedure used is briefly described below. A crude lysate of E. coli expressing the estrogen receptor ligand binding domains (D, E, & F) of human ERα or ERβ was prepared. Both receptors and compounds were diluted in 1× Dulbecco's PBS (DPBS) supplemented with 1 mM EDTA. Using a high binding masked microtiter plate, 100 uL of receptor (1 uG/well) was combined with 2 nm [^3H]-17β-estradiol and various concentrations of compound. After between 5 and 15 hours at room temperature, the plates were washed with DPBS/1 mM EDTA and bound radioactivity determined by liquid scintillation counting. The IC50 is defined as the concentration of compound that decreases total 17β-estradiol binding by 50%.

| SMILES | IC50 [1] | IC50 ([2]; read-out: ERα (nM) IC50) | melting point | IC50 ([2]; read-out: ERα IC50 (cell prints uM)) |
| --- | --- | --- | --- | --- |
| Oc1ccc2c(c1)COc1cc3cc(O)ccc3cc1-2 [Example 4, 5H-Dibenzo[c,g]chromene-3,9-diol] | 7.9 nM | 63 nM | 231 to 233 °C |  |
| CC(C)(C)c1ccc(-c2c3c(cc4ccc(O)cc24)-c2ccc(O)cc2CO3)cc1 [Example 60, 7-(4-tert-Butylphenyl)-5H-dibenzo[c,g]chromene-3,9-diol] | 320 nM | 3480 nM | 162 to 165 °C |  |
| COc1cncc(-c2c3c(cc4ccc(O)cc24)-c2ccc(O)cc2CO3)c1 [Example 53, 7-(5-Methoxy-3-Pyridyl)-5H-dibenzo[c,g]chromene-3,9-diol] | 34 nM | 2420 nM | > 250 °C |  |
| Oc1ccc2c(c1)COc1c-2cc2ccc(O)cc2c1Cl [Example 12, 7-Chloro-5H-dibenzo[c,g]chromene-3,9-diol] | 1.5 nM | 15 nM |  |  |
| Cc1cc(C)cc(-c2c3c(cc4ccc(O)cc24)-c2ccc(O)cc2CO3)c1 [Example 63, 7-(3,5-Dimethylphenyl)-5H-dibenzo[c,g]chromene-3,9-diol] |  |  | 220 to 223 °C |  |
| COc1c2c(c(Br)c3ccc(O)cc13)-c1ccc(O)cc1CO2 [Example 19, 12-Bromo-7-methoxy-5H-dibenzo[c,g]chromene-3,9-diol] | 3.3 nM | 12 nM |  |  |
| Oc1ccc2c(c1)COc1c-2cc2ccc(O)cc2c1-c1ccccc1 [Example 23, 7-Phenyl-5H-dibenzo[c,g]chromene-3,9-diol] | 4.1 nM | 137 nM | 225 to 227 °C |  |
| CCc1ccc(-c2c3c(cc4ccc(O)cc24)-c2ccc(O)cc2CO3)cc1 [Example 62, 7-(4-Ethylphenyl)-5H-dibenzo[c,g]chromene-3,9-diol] | 26 nM | 892 nM | 203 to 205 °C |  |
| COc1ccncc1-c1c2c(cc3ccc(O)cc13)-c1ccc(O)cc1CO2 [Example 51, 7-(4-Methoxy-3-Pyridyl)-5H-dibenzo[c,g]chromene-3,9-diol] |  |  | > 220 °C |  |
| COc1c2c(cc3ccc(O)cc13)-c1ccc(O)cc1CO2 [Example 15, 7-Methoxy-5H-dibenzo[c,g]chromene-3,9-diol] | 4.3 nM | 169 nM |  |  |
| Oc1ccc2c(c1)COc1c-2cc2ccc(O)cc2c1-c1cc(F)cc(F)c1 [Example 44, 7-(3,5-Difluorophenyl)-5H-dibenzo[c,g]chromene-3,9-diol] | 10 nM | 70 nM | 238 to 240 °C |  |
| Oc1ccc2c(c1)COc1c-2cc2ccc(O)cc2c1-c1ccc(Cl)c(Cl)c1 [Example 55, 7-(3,4-Dichlorophenyl)-5H-dibenzo[c,g]chromene-3,9-diol] | 835 nM |  | 143 to 145 °C |  |
| Oc1ccc2c(c1)COc1c-2cc2ccc(O)cc2c1-c1ccc(Cl)cc1 [Example 28, 7-(4-Chlorophenyl)-5H-dibenzo[c,g]chromene-3,9-diol] | 9.3 nM | 320 nM | 239 to 242 °C |  |
| Oc1ccc2c(c1)COc1c-2cc2ccc(O)cc2c1-c1ncccn1 [Example 52, 7-(Pyrimidyl)-5H-dibenzo[c,g]chromene-3,9-diol] | 60 nM | 1600 nM |  |  |
| Cc1ccc(-c2c3c(cc4ccc(O)cc24)-c2ccc(O)cc2CO3)cc1F [Example 41, 7-(3-Fluoro-4-Methylphenyl)-5H-dibenzo[c,g]chromene-3,9-diol] | 28 nM | 655 nM | 238 to 240 °C |  |
| COc1ccc(-c2c3c(cc4ccc(O)cc24)-c2ccc(O)cc2CO3)cc1 [Example 27, 7-(4-Methoxyphenyl)-5H-dibenzo[c,g]chromene-3,9-diol] | 9.8 nM | 702 nM | 200 to 203 °C |  |

| SMILES | IC50 [1] | IC50 ([2]; read-out: ERα (nM) IC50) | melting point | IC50 ([2]; read-out: ERα IC50 (cell prints uM)) |
| --- | --- | --- | --- | --- |
| Oc1ccc2c(c1)COc1c-2cc2ccc(O)cc2c1-c1ccc(F)c(F)c1 [Example 36, 7-(3,4-Difluorophenyl)-5H-dibenzo[c,g]chromene-3,9-diol] | 6.2 nM | 206 nM | 235 to 237 °C |  |
| Oc1ccc2c(c1)COc1c-2cc2ccc(O)cc2c1-c1ccco1 [Example 48, 7-(2-Furyl)-5H-dibenzo[c,g]chromene-3,9-diol] | 3.5 nM | 146 nM | 158 to 163 °C |  |
| Cc1ccc(-c2c3c(cc4ccc(O)cc24)-c2ccc(O)cc2CO3)cc1 [Example 26, 7-(4-Tolyl)-5H-dibenzo[c,g]chromene-3,9-diol] | 4.1 nM | 137 nM | 238 to 240 °C |  |
| Cc1c2c(cc3ccc(O)cc13)-c1ccc(O)cc1CO2 [Example 21, 7-Methyl-5H-dibenzo[c,g]chromene-3,9-diol] | 1 nM | 17 nM | 224 to 226 °C |  |
| Oc1ccc2c(c1)COc1c-2cc2ccc(O)cc2c1-c1ccsc1 [Example 31, 7-Thien-3-yl-5H-dibenzo[c,g]chromene-3,9-diol] | 4.1 nM | 152 nM | 159 to 161 °C |  |
| Oc1ccc2c(c1)COc1c-2cc2ccc(O)cc2c1-c1ccc(OC(F)(F)F)cc1 [Example 59, 7-(4-Trifluoromethoxyphenyl)-5H-dibenzo[c,g]chromene-3,9-diol] | 34 nM | 1220 nM | 245 to 248 °C |  |
| Oc1ccc2c(c1)COc1c-2cc2ccc(O)cc2c1-c1cccc(F)c1 [Example 32, 7-(3-Fluorophenyl)-5H-dibenzo[c,g]chromene-3,9-diol] | 3.3 nM | 93 nM | 225 to 227 °C |  |
| Oc1ccc2c(c1)COc1c-2cc2ccc(O)cc2c1-c1ccoc1 [Example 47, 7-(3-Furyl)-5H-dibenzo[c,g]chromene-3,9-diol] | 2 nM | 76 nM | 216 to 218 °C |  |
| COc1c2c(c(Cl)c3ccc(O)cc13)-c1ccc(O)cc1CO2 [Example 20, 12-Chloro-7-methoxy-5H-dibenzo[c,g]chromene-3,9-diol] | 1.4 nM | 13 nM |  |  |
| Oc1ccc2c(c1)COc1c-2cc2ccc(O)cc2c1-c1cccc2ccccc12 [Example 61, 7-(Naphthyl)-5H-dibenzo[c,g]chromene-3,9-diol] |  | 172 nM |  |  |
| Oc1ccc2c(c1)COc1c-2cc2ccc(O)cc2c1-c1ccncc1 [Example 37, 7-(4-Pyridyl)-5H-dibenzo[c,g]chromene-3,9-diol] | 3.05 nM |  |  | > 5000 nM |
| Oc1ccc2c(c1)COc1ccc3ccc(O)cc3c1-2 [Example 5, 5H-Dibenzo[c,f]chromene-3,11-diol] |  |  | 199 to 201 °C |  |
| COc1ccc(-c2c3c(cc4ccc(O)cc24)-c2ccc(O)cc2CO3)cn1 [Example 51] | 22 nM | 764 nM |  |  |
| C=Cc1c2c(cc3ccc(O)cc13)-c1ccc(O)cc1CO2 [Example 16, 7-Vinyl-5H-dibenzo[c,g]chromene-3,9-diol] | 2 nM | 44 nM |  |  |
| Oc1ccc2c(c1)COc1c-2cc2ccc(O)cc2c1Br [Example 13, 7-Bromo-5H-dibenzo[c,g]chromene-3,9-diol] | 1.2 nM | 13 nM |  |  |
| Oc1ccc2c(c1)COc1c-2cc2ccc(O)cc2c1-c1ccncc1 (as salt: HCl) [Example 37, 7-(4-Pyridyl)-5H-dibenzo[c,g]chromene-3,9-diol] |  |  | > 250 °C |  |
